Reference: ChEMBL document CHEMBL1157995, “New acetylenic enol ethers of glycerol from the sponge Petrosia sp” (1999)
≈ marks a conversion by molar mass, not a printed value.

Tested on: K562
Test: Cytotoxicity against human K-562 cells after 5 days by MTT assay
Assay type: functional
Conditions: K562, 120 h, read-out: LC50 (the source's name)

Structure (SMILES) | CC50 [µg/mL]
CCCCCC/C=C\C#C/C=C\OC[C@@H](O)CO [PETRORASPAILYNE A1] | 9.2 (≈ 36.5 µM)
CC(C)CCCC/C=C\C#C/C=C\OC[C@@H](O)CO [PETRORASPAILYNE A2] | 57 (≈ 214 µM)
CCC(C)CCCCC/C=C\C#C/C=C\OC[C@@H](O)CO (stereo partly specified) [PETRORASPAILYNE A3] | 29 (≈ 98.5 µM)
CCCCCCCCC#C/C=C\OC[C@@H](O)CO [PETRORASPAILYNE B1] | > 100
CCC(C)CCCCCC#C/C=C\OC[C@@H](O)CO (stereo partly specified) [PETRORASPAILYNE B2] | > 100
CC(C)CCCCCCC#C/C=C\OC[C@@H](O)CO [PETRORASPAILYNE B3] | > 100
